# Source: PMC9653995, “New Positive TRPC6 Modulator Penetrates Blood–Brain Barrier, Eliminates Synaptic Deficiency and Restores Memory Deficit in 5xFAD Mice” (International Journal of Molecular Sciences, 2022)
# Experiments:
# [1] = In vitro stability in pooled mouse blood plasma; format: in vitro ADME; details: 1 µM, 37 °C
# Description: The stability of C20 was assessed during incubation with pooled mouse plasma samples for 4 h at 37 °C. To confirm the activity of blood plasma enzymes in the control substance, propantheline (Figure 4A) was used.
# The compound C20, at a final concentration of 1 μM, was incubated in mouse plasma at 37 °C with moderate shaking at 300 rpm in a shaker-incubator. After 0, 15, 30, 60 and 240 min, the samples were mixed, aliquots were obtained, and the samples were analyzed by HPLC-MS/MS. Propantheline was used as a control compound. Incubation of compounds with plasma samples was carried out in duplicate. Overall, 100% was obtained as the amount of a substance determined using a mass spectrometer in blood plasma in a 0 min incubation time period.
# A total of 3 µL of 100-fold C20 or propantheline substance (0.1 mM) was added to 297 µL of blood plasma preheated to 37 °C to a final concentration of 1 µM.
# Aliquots of 30 μL for the time point T = 0 were transferred into microtubes with a capacity of 1.1 mL pre-filled with 180 μL of chilled MeCN with an internal standard of Tolbutamide (IS) at a concentration of 50 ng/mL. Mixed and kept at +4 °C for 15 min. […]
# The values of the areas of chromatographic peaks of substances in the studied samples normalized to the area of IS were used for calculations. The 100% of the tested substance from the initial amount was determined at T = 0 min of incubation. […]
# [2] = In vivo pharmacokinetics in plasma and brain after single i.p. injection; set-up: species or system CD-1 mice; details: mice, 10 mg/kg i.p.
# Description: Two-month-old CD-1 mice (males) were used for pharmacokinetic studies. CD-1 mice were obtained from Charles River GmbH and housed in the laboratory of bioanalytics of the ChemRar research institute. The number of animals in the study was kept at a minimum in terms of ethical principles and regulatory requirements.
# The study was carried out on 20 mice. Five animals constituted the control group, which were not injected with the C20 substance. The remaining 15 animals were divided into 5 groups of 3 animals per time point. At least 12 h before the start of the experiment, the animals were deprived of food with free access to water.
# All 15 animals from the experimental groups underwent a single intraperitoneal injection of the C20 formulation at a dose of 10 mg/kg (formulation containing 10% ethanol). After 0.25, 0.5, 1, 2, and 4 h, CO2 euthanasia was performed in each group of animals in accordance with the time point. Blood plasma and brain samples were obtained.
# Blood was collected by cardiopuncture in a volume of 0.2 mL into polypropylene tubes containing 20 μL of 5% EDTA. Blood plasma was separated by centrifugation at 10,000 rpm for 10 min.
# Pharmacokinetic analysis was performed by a non-compartmental method using the Phoenix WinNonlin 6.3 software package (Pharsight Corporation, Mountain View, CA, USA) and in accordance with SOP-BL-AN-027 “Calculation and analysis of parameters of pharmacokinetic and toxicokinetic studies. Statistical processing of results”.
# Analysis of pharmacokinetic parameters was performed using averaged pharmacokinetic curves in the plasma and brain. The main pharmacokinetic parameters were determined:
# The intensity of C20 penetration into the brain was assessed in terms of tissue availability (ft):(1) ft=AUCt/AUCk, where AUCt is the area under the pharmacokinetic curve in the tissue; AUCk is the area under the pharmacokinetic curve in blood plasma.
structure (smiles),measurement,setting,value
"COc1cc2c(cc1OC)C(c1cc3ccccc3oc1=O)=NC(C)(C)C2 [C20, 3-(3-,4-Dihydro-6,7-dimethoxy-3,3-dimethyl-1-isoquinolinyl)-2H-1-benzopyran-2-one]",initial amount remaining in mouse blood plasma,[1]; after 4 h incubation,about 62%
same,concentration remaining in mouse blood plasma,[1]; during the first hour of incubation,above 85%
same,concentration in brain samples after 4 h,[2],10 ng/g
same,half-life (t1/2) of elimination from plasma,[2],31.2 min
same,half-life (t1/2) of excretion from the brain,[2],44.4 min
same,maximum concentration in plasma,[2]; formulation with 10% ethanol,789 ng/mL
same,time of maximum concentration (plasma and brain),[2]; first sampling point,15 min
same,index of tissue availability in the brain (ft) in relation to blood plasma,[2]; ft = AUCt/AUCk,1.05
